Legend:
[1] = Apparent thermodynamic functions of mixing; type: physicochemical; settings: Thm=303.0 K
[2] = neat water, x1=0.000; Thm=303.0 K; cited from earlier work

With `Cc1cnc(NC(=O)C2=C(O)c3ccccc3S(=O)(=O)N2C)s1` [Meloxicam, 4-hydroxy-2-methyl-N-(5-methyl-2-thiazolyl)-2H-1,2-benzothiazine-3-carboxamide-1,1-dioxide] the “ΔmixG° (apparent Gibbs energy of mixing)” value ([1]; NMP+water, x1=0.100) was 13.24 kJ·mol^–1, the “ΔmixH° (apparent enthalpy of mixing)” value ([1]; NMP+water, x1=0.100) was 3.14 kJ·mol^–1 and the “ΔmixS° (apparent entropy of mixing)” value ([1]; NMP+water, x1=0.100) was “–33.32 J·mol^–1·K^–1”. For the same compound, the “ΔmixG° (apparent Gibbs energy of mixing)” value ([1]; NMP+water, x1=0.200) was 8.18 kJ·mol^–1, the “ΔmixH° (apparent enthalpy of mixing)” value ([1]; NMP+water, x1=0.200) was 0.11 kJ·mol^–1 and the “ΔmixS° (apparent entropy of mixing)” value ([1]; NMP+water, x1=0.200) was “–26.62 J·mol^–1·K^–1”. For the same compound, the “ΔmixG° (apparent Gibbs energy of mixing)” value ([1]; NMP+water, x1=0.300) was 4.22 kJ·mol^–1, the “ΔmixH° (apparent enthalpy of mixing)” value ([1]; NMP+water, x1=0.300) was “–3.31 kJ·mol^–1” and the “ΔmixS° (apparent entropy of mixing)” value ([1]; NMP+water, x1=0.300) was “–24.85 J·mol^–1·K^–1”. The “ΔmixG° (apparent Gibbs energy of mixing)” value ([1]; NMP+water, x1=0.400) was 1.15 kJ·mol^–1, the “ΔmixH° (apparent enthalpy of mixing)” value ([1]; NMP+water, x1=0.400) was “–7.38 kJ·mol^–1” and the “ΔmixS° (apparent entropy of mixing)” value ([1]; NMP+water, x1=0.400) was “–28.14 J·mol^–1·K^–1”. For the same compound, the “ΔmixG° (apparent Gibbs energy of mixing)” value ([1]; NMP+water, x1=0.500) was “–1.16 kJ·mol^–1”, the “ΔmixH° (apparent enthalpy of mixing)” value ([1]; NMP+water, x1=0.500) was “–10.00 kJ·mol^–1” and the “ΔmixS° (apparent entropy of mixing)” value ([1]; NMP+water, x1=0.500) was “–29.18 J·mol^–1·K^–1”. The “ΔmixG° (apparent Gibbs energy of mixing)” value ([1]; NMP+water, x1=0.600) was “–2.74 kJ·mol^–1”, the “ΔmixH° (apparent enthalpy of mixing)” value ([1]; NMP+water, x1=0.600) was “–6.91 kJ·mol^–1” and the “ΔmixS° (apparent entropy of mixing)” value ([1]; NMP+water, x1=0.600) was “–13.74 J·mol^–1·K^–1”. For the same compound, the “ΔmixG° (apparent Gibbs energy of mixing)” value ([1]; NMP+water, x1=0.700) was “–3.72 kJ·mol^–1”, the “ΔmixH° (apparent enthalpy of mixing)” value ([1]; NMP+water, x1=0.700) was 1.42 kJ·mol^–1 and the “ΔmixS° (apparent entropy of mixing)” value ([1]; NMP+water, x1=0.700) was 16.95 J·mol^–1·K^–1. The “ΔmixG° (apparent Gibbs energy of mixing)” value ([1]; NMP+water, x1=0.800) was “–4.65 kJ·mol^–1”, the “ΔmixH° (apparent enthalpy of mixing)” value ([1]; NMP+water, x1=0.800) was “–0.68 kJ·mol^–1” and the “ΔmixS° (apparent entropy of mixing)” value ([1]; NMP+water, x1=0.800) was 13.10 J·mol^–1·K^–1. For the same compound, the “ΔmixG° (apparent Gibbs energy of mixing)” value ([1]; NMP+water, x1=0.900) was “–5.56 kJ·mol^–1”, the “ΔmixH° (apparent enthalpy of mixing)” value ([1]; NMP+water, x1=0.900) was “–5.29 kJ·mol^–1” and the “ΔmixS° (apparent entropy of mixing)” value ([1]; NMP+water, x1=0.900) was 0.90 J·mol^–1·K^–1. The “ΔmixG° (apparent Gibbs energy of mixing)” value ([1]; neat NMP, x1=1.000) was “–6.17 kJ·mol^–1”, the “ΔmixH° (apparent enthalpy of mixing)” value ([1]; neat NMP, x1=1.000) was “–3.73 kJ·mol^–1” and the “ΔmixS° (apparent entropy of mixing)” value ([1]; neat NMP, x1=1.000) was 8.07 J·mol^–1·K^–1. For the same compound, the “ΔmixG° (apparent Gibbs energy of mixing)” value ([1]; neat water, x1=0.000) was 20.19 kJ·mol^–1, the “ΔmixH° (apparent enthalpy of mixing)” value ([1]; neat water, x1=0.000) was “–17.09 kJ·mol^–1” and the “ΔmixS° (apparent entropy of mixing)” value ([1]; neat water, x1=0.000) was “–123.02 J·mol^–1·K^–1”. The “TΔsolnS°” value [2] was “–26.66 kJ·mol^–1”, the “ΔsolnG° (apparent Gibbs energy of dissolution)” value [2] was 34.35 kJ·mol^–1 and the “ΔsolnH° (apparent enthalpy of dissolution)” value [2] was 7.69 kJ·mol^–1. For the same compound, the “ΔsolnS° (apparent entropy of dissolution)” value [2] was “–87.99 J·mol^–1·K^–1”.

— publication PMC9609070 (ACS Omega, 2022)
